Measurements taken from a melting point compilation (Tetko et al.; mined from patent text by program, amines drawn as free bases though some values may be those of a salt).

melting point | Structure (SMILES)
158 to 162 °C | CC(C)CC(Sc1c(Cl)cccc1Cl)c1c(O)cc(-c2ccccc2)oc1=O (configuration not stated)
140 to 143 °C | FC(F)(F)c1cccc(-c2ccc3nncn3n2)c1
174 °C | CCCn1c(=O)c2c(nc(/C=C/c3ccc(OCC)c(OCC)c3)n2C)n(CCC)c1=O
65 to 67 °C | CCN(CC)C(=O)c1c(C(F)F)ccc(F)c1[Si](C)(C)C
175 to 178 °C | CS(=O)(=O)NC(=O)c1cccc([N+](=O)[O-])c1
205 to 208 °C | CC(=O)Nc1cccc(-c2c(C)c(NC(=O)CC(C)(C)C)c(C)c3c2OCC3c2ccc(C(C)C)cc2)n1 (configuration not stated)
239 to 240 °C | CC(=O)Nc1ccc(S(=O)(=O)Nc2nnc(C)s2)cc1
72 to 74 °C | CC(C)(Br)C(=O)ON1C(=O)CCC1=O
73 to 75 °C | Cc1nn(-c2cccnc2)cc1NCC1CC1
163 to 164 °C | Cc1cc(-n2nc(C#N)cc2-c2ccc(S(C)(=O)=O)cc2)ccc1Cl
90 to 110 °C | COCCNC(=O)C(NC(=O)OCc1ccccc1)c1ccc2c(c1)CCO2 (configuration not stated)
188 °C | OCc1cc2cc(OCc3ccccc3)c(F)cc2nc1I
122 to 124 °C | CCCCNCC1CCn2c(nc3ccccc32)S1 (configuration not stated)
104 to 106 °C | Cc1cc(OCc2ccccc2)c(C)cc1OCCCC(C)(C)C(=O)O
191 °C | Cc1nnc(NCCN2CCC(Nc3nc4ccccc4n3Cc3ccc(F)cc3)CC2)s1
217 to 225 °C | N#Cc1ccc2ccc(=O)oc2c1
61 to 63 °C | CCOC(=O)CCCCNc1ccc2c(c1)CCC2
183 to 185 °C | O=C(NCCCOc1ccc(-n2ccnc2)cc1)c1ccc(Br)cc1
52 to 54 °C | CCCC1=C(CCC)C1(C(=O)Nc1ccc(Br)cc1C)C(=O)OC

melting point | Structure (SMILES)
98 to 99 °C | COc1c(Cl)ccc(C(=O)O)c1SC
67 to 70 °C | COc1ccc2cc(C(C)C(=O)NCC3(C)CCC4C(=C(C)C(C)=CC4(C)O)O3)ccc2c1 (configuration not stated)
43 to 45 °C | CC(C)(C)NS(=O)(=O)c1ccccc1CCO
163 to 166 °C | Cc1nc(NC(=O)c2ccccc2)sc1C(=O)NCC1CC1
192 to 195 °C | O=C(Nc1cccc(-c2c(-c3ccccc3)cnc3c(C(F)(F)F)cccc23)c1)Nc1ccccc1Cl
158 to 159 °C | COC(=O)COc1ccc(C(=O)NN(C)C(=O)OC(C)(C)C)cc1
155 to 158 °C | CO[C@@H]1C=C2C=C3C(=C(C)C(=O)N3C)C[C@]2(C)[C@@H](C)[C@H]1OC(=O)c1ccco1
212 to 214 °C | COC1(c2ccccc2)OC=C(c2ccc(C(=O)O)cc2)C1=O (configuration not stated)
197 to 198 °C | CC(C)n1nc(-c2sc(NC(=O)CCN3CCOCC3)nc2-c2ccccc2)ccc1=O
78 to 81 °C | CCN(CC)c1ccc(C=O)c(OCc2ccccn2)c1
98 to 100 °C | COc1ccc(N)nc1C
175 to 176 °C | C[C@@H]1Cc2cc3c(cc2C(c2ccc([N+](=O)[O-])cc2)=NN1c1cnns1)OCO3
203 to 208 °C | CCOC(=O)c1cn(C)c2c(=O)oc3ccccc3c2c1=O
130 to 132 °C | CN(N)c1nc(C(F)(F)F)nc2ccccc12
92 to 95 °C | COCC1CN(c2c(F)cc3c(=O)c(C(=O)O)cn([C@@H]4C[C@@H]4F)c3c2OC)CCN1 (some centres not stated)
180 to 181 °C | COc1ccc(NC2SC(=O)NC2=O)cc1 (configuration not stated)
118 to 120 °C | CC(C)C(C)C=CC(C)C1CCC2C3CC(=O)C4CC=CCC4(C)C3CCC12C (configuration not stated)
214 °C | O=c1[nH]c2cc(Cl)c(Cl)cc2n1CCCN1CCN(C(c2ccccc2)c2ccccc2)CC1

Second part, the molecule before the results:

Structure (SMILES) | melting point
CCc1nnc(-c2ccc(OC)cc2)n1-c1ccc(Cl)cc1 | 162 °C
COc1ccc2c(c1O)C(=O)O[C@@H]2[C@H]1c2c(cc3c(c2OC)OCO3)CCN1C | 142 to 143 °C
O=C(NCCBr)C1=C(C(=O)Nc2ccc(Cl)cc2F)CCCC1 | 165 to 166 °C
O=C1CCCN1c1cccc(C(F)(F)F)c1 | 65 to 66 °C
CC(=O)OC1CSC(Oc2ccc(-c3ccnc(F)c3)nc2)C(OC(C)=O)C1OC(C)=O (configuration not stated) | 179 °C
O=C(O)CCCc1cccc(CNC(=O)C2Cc3ccccc3N2S(=O)(=O)c2ccc(-c3cccc(C(F)(F)F)c3)cc2)c1 (configuration not stated) | 76 °C
CC(=O)C1CNCc2c1[nH]c1cnc3cc(Cl)ccc3c21 (configuration not stated) | 235 to 237 °C
COc1cc2ncc(C#N)c(Nc3ccc(F)c(Cl)c3)c2cc1NC(=O)C=CCN1CCC(N2CCCCC2)CC1 | 140 to 144 °C
Cc1ccc(N)c(C(=S)NCC2CC2)c1 | 124 °C
O=C(O)CCCCCc1ccc(O)c(O)c1 | 109 °C
COC(=O)CCNCC1CC2c3cccc4[nH]cc(c34)CC2N(C)C1 (configuration not stated) | 130 to 132 °C
COc1ccc(S(=O)(=O)n2c(CCCC(=O)O)cc3cc(Cl)ccc32)cc1 | 138 to 142 °C
COC(C(N)=S)c1ccccn1 (configuration not stated) | 157 to 159 °C
O=C(c1ccc(-c2cnc3c(c2)N(Cc2cc(F)ccc2F)CCN3)cc1)N1CCC(N2CCCC2)CC1 | 202 to 204 °C
CC1=CC(OC(=O)C=Cc2ccc(N)cc2)C(O)C(C)(C)CC1=O (configuration not stated) | 72 to 74 °C
Cc1cc(=O)n(O)c(C)c1Cc1ccccc1 | 165 °C
O=c1[nH]c2cc(Cl)ccc2c(O)c1-c1ccc2c(c1)OCO2 | > 350 °C
O=C(O)CCc1cc2cc(Cl)ccc2n1S(=O)(=O)c1ccccc1 | 165 to 168 °C

Structure (SMILES) | melting point
CCOC(=O)NN(C)C(=O)Nc1ccc(OCc2ccc(Cl)cc2)cc1F | 108 °C
COc1ccnc(C(C)O)c1 (single isomer, unassigned; (+)) | 92 °C
CC(=O)NC1(c2ccccc2)CCN(CCC(CN(CCc2ccccc2)CCc2ccccc2)c2ccc(Cl)c(Cl)c2)CC1 (configuration not stated) | 60 to 62 °C
Cc1coc(-c2ccc3c(c2)c2cc(-c4ccc(Cl)cc4Cl)c(=O)n(C)c2n3C)n1 | 258 to 261 °C
O=C1NC(=O)C(=Cc2ccc(OCCN3C(=O)SC(Cc4ccccc4)C3=O)cc2)S1 (configuration not stated) | 145 to 147 °C
CN1CCC(C2(O)c3ccccc3COc3cc(Cl)ccc32)CC1 (configuration not stated) | 199 to 200 °C
C#CCN(Cc1ccc2nc(NC(=O)C(C)(C)C)[nH]c(=O)c2c1)c1ccc(S(=O)(=O)N(C)C)cc1 | 217 to 220 °C
CCCc1c(OCc2ccc(C=CC(=O)O)c(OC)c2)ccc(C(C)=O)c1O | 214 to 216 °C
C=C(Cl)C[C@@H](CC(=O)N(CC(=O)N(C)CCc1ccccn1)CC1CCCCC1)C(=O)N[C@@H](CC1CCCCC1)[C@@H](O)[C@@H](O)CC(C)C | 140 °C
CCn1ncc2c(NCc3ccco3)c3ccccc3nc21 | 156 to 158 °C
CCC(CC)C(=O)Nc1ccc2ncn3c(=O)c(C(=O)O)cnc3c2c1 | 295 to 298 °C
CC(C)N(CCCCS(=O)(=O)CC(=O)O)c1cnc(-c2ccccc2)c(-c2ccccc2)n1 | 183 to 185 °C
C#CCNc1nc2ccc(OC(F)(F)F)cc2s1 | 138 to 140 °C
CC(=O)NC1CCCn2c1c(C)c1ccccc12 (configuration not stated) | 158 to 160 °C
COP1(=S)OCc2cc(C)cnc2O1 (configuration not stated) | 74 to 75 °C
CC1(CCl)COC(N)=N1 (configuration not stated) | 61 to 62 °C
Oc1ccc2c(nc(C(F)F)n2-c2nc(N3CCOCC3)nc(N3CCOCC3)n2)c1Cl | > 250 °C
